Laboratory results: ChEMBL document CHEMBL1147586, “Discovery of a dihydropyrimidine series of molecules that selectively mimic the biological actions of calcitonin” (Bioorg Med Chem Lett, 2004)
Values belong to the compound of their own block, whether it stands above or below them. The source made the active and inactive calls. The calls are words filed in the database; no cut-off is given here.

Tests used:
[1] = system: HEK293; test: Fold induction of cAMP accumulation in HEK 293 cells at 75u M.; type: functional, Homo sapiens
[2] = system: HEK293; test: In vitro cAMP accumulation in HEK 293 cells.; type: functional, cell-based; conditions: Homo sapiens
[3] = system: HEK293; test: Fold increase expressed as pmol of cAMP accumulation by the compound/basal level of cAMP produced at 25 uM in multiplex cell based assay; 4.7/4.0; type: functional, Homo sapiens
[4] = system: HEK293; test: Fold increase expressed as pmol of cAMP accumulation by the compound/basal level of cAMP produced by CGRP1-7HEK cells at 25 uM; No activity; type: functional, cell-based; conditions: Homo sapiens
[5] = system: HEK293; test: Fold increase expressed as pmol of cAMP accumulation by the compound/basal level of cAMP produced by CTR-2HEK cells at 25 uM; type: functional, Homo sapiens
[6] = system: HEK293; test: Fold increase expressed as pmol of cAMP accumulation by the compound/basal level of cAMP produced by EPTH1-1HEK cells at 25 uM; No activity; type: functional, cell-based; conditions: Homo sapiens
[7] = system: HEK293; test: Fold increase expressed as pmol of cAMP accumulation by the compound/basal level of cAMP produced by GIP-1HEK cells at 25 uM; No activity; type: functional, cell-based; conditions: Homo sapiens
[8] = system: HEK293; test: Fold increase expressed as pmol of cAMP accumulation by the compound/basal level of cAMP produced by GLP1-7HEK cells at 25 uM; No activity; type: functional, cell-based; conditions: Homo sapiens
[9] = system: HEK293; test: Fold increase expressed as pmol of cAMP accumulation by the compound/basal level of cAMP produced by GLU-1HEK cells at 25 uM; No activity; type: functional, cell-based; conditions: Homo sapiens
[10] = system: HEK293; test: Fold increase expressed as pmol of cAMP accumulation by the compound/basal level of cAMP produced at 25 uM in multiplex cell based assay; 4.5/5.7; type: functional, Homo sapiens
[11] = system: HEK293; test: Fold increase expressed as pmol of cAMP accumulation by the compound/basal level of cAMP produced at 25 uM in multiplex cell based assay; 5.1/4.4; type: functional, Homo sapiens
[12] = Bioavailability in rat after intravenous administration at 1 mpk; type: ADME, organism-based; conditions: in vivo, read-out: Bioavailabiility
[13] = Bioavailability in rat after peroral administration at 30 mpk; type: ADME, organism-based; conditions: in vivo, po, 30 mg/kg, read-out: Bioavailabiility
[14] = system: monkey; test: Bioavailability in monkey after peroral administration at 10 mpk; conditions: in vivo, po, 10 mg/kg, read-out: Bioavailabiility
[15] = system: monkey; test: Bioavailability in monkey after intravenous administration at 1 mpk; conditions: in vivo, read-out: Bioavailabiility
[16] = system: Rattus norvegicus; test: Bioavailability in rat after peroral administration at 100 mpk; type: functional, organism-based
[17] = Bioavailability in rat after intravenous administration at 2 mpk; type: ADME, organism-based; conditions: in vivo, read-out: Bioavailabiility
[18] = system: HEK293; test: Fold increase expressed as pmol of cAMP accumulation by the compound/basal level of cAMP produced at 25 uM in multiplex cell based assay; 4.7/3.2; type: functional, Homo sapiens

SMILES: CC1=C(C(=O)OCc2ccccc2)C(c2cccc(C)c2)NC(=O)N1 (centres undefined)
Fold-induction [1]: 23 | EC50 [2]: 15 µM

SMILES: CC(C)C[C@H](NC(=O)[C@H](CCCCN)NC(=O)CNC(=O)[C@H](CC(C)C)NC(=O)[C@@H](NC(=O)[C@@H]1CSSC[C@H](N)C(=O)N[C@@H](CO)C(=O)N[C@@H](CC(N)=O)C(=O)N[C@@H](CC(C)C)C(=O)N[C@@H](CO)C(=O)N[C@@H]([C@@H](C)O)C(=O)N1)C(C)C)C(=O)N[C@@H](CO)C(=O)N[C@@H](CCC(N)=O)C(=O)N[C@@H](CCC(=O)O)C(=O)N[C@@H](CC(C)C)C(=O)N[C@@H](Cc1c[nH]cn1)C(=O)N[C@@H](CCCCN)C(=O)N[C@@H](CC(C)C)C(=O)N[C@@H](CCC(N)=O)C(=O)N[C@H](C(=O)N[C@@H](Cc1ccc(O)cc1)C(=O)N1CCC[C@H]1C(=O)N[C@@H](CCCNC(=N)N)C(=O)N[C@H](C(=O)N[C@@H](CC(N)=O)C(=O)N[C@H](C(=O)NCC(=O)N[C@@H](CO)C(=O)NCC(=O)N[C@H](C(=O)N1CCC[C@H]1C(N)=O)[C@@H](C)O)[C@@H](C)O)[C@@H](C)O)[C@@H](C)O [CALCITONIN SALMON]
Fold-induction [1]: 40 | EC50 [2]: 0.003 µM

SMILES: CCC1=C([N+](=O)[O-])C(c2ccc3c(c2)OCO3)NC(=O)N1 (centres undefined)
Fold-induction [3]: 4.7 | Fold-induction [4]: inactive | Fold-induction [5]: 12 | Fold-induction [6]: inactive | Fold-induction [7]: inactive | Fold-induction [8]: inactive | Fold-induction [9]: inactive

SMILES: CCCC1=C(C(=O)OCc2ccc(C(=O)O)cc2)C(c2cccc(C)c2)NC(=O)N1 (centres undefined)
Fold-induction [1]: 61 | EC50 [2]: 3.4 µM

SMILES: CCCC1=C(C(=O)OCc2ccc(C(=O)NCCCN3CCCCC3)cc2)C(c2cccc(C)c2)NC(=O)N1 (centres undefined)
Fold-induction [1]: 52 | EC50 [2]: 1.9 µM

SMILES: CCCC1=C(C(=O)OCc2ccccc2)C(c2cccc(C)c2)NC(=O)N1 (centres undefined)
Fold-induction [1]: 36 | EC50 [2]: 5.2 µM

SMILES: CC1=C(C(=O)OCc2ccccc2)C(c2ccccc2)NC(=O)N1 (centres undefined)
Fold-induction [1]: 17 | EC50 [2]: > 20 µM

SMILES: CCCC1=C(C(=O)OCc2ccc(C(=O)NCCCN(C)C)cc2)C(c2cccc(C)c2)NC(=O)N1 (centres undefined)
Fold-induction [1]: 55 | EC50 [2]: 1.4 µM

SMILES: CCCC1=C(C(=O)OCC)C(c2cc(C)cc(C)c2)NC(=O)N1 (centres undefined)
Fold-induction [1]: 34 | EC50 [2]: 9.5 µM

SMILES: CCCC1=C(C(=O)OCC)C(c2cccc(Cl)c2)NC(=O)N1 (centres undefined)
Fold-induction [1]: 21 | EC50 [2]: 6.8 µM

SMILES: CC1=C(C(=O)OC2CCCC2C)C(c2ccccc2)NC(=O)N1 (centres undefined)
Fold-induction [10]: 4.5 | Fold-induction [4]: inactive | Fold-induction [5]: 8 | Fold-induction [6]: inactive | Fold-induction [7]: inactive | Fold-induction [8]: inactive | Fold-induction [9]: inactive

SMILES: CCCC1=C(C(=O)OCc2ccc(C(=O)N(C)CCN3CCCCC3)cc2)C(c2cccc(C)c2)NC(=O)N1 (centres undefined)
Fold-induction [1]: 55 | EC50 [2]: 4.4 µM

SMILES: CCCC1=C(C(=O)OCc2ccc(C(=O)N(C)C)cc2)C(c2cccc(C)c2)NC(=O)N1 (centres undefined)
Fold-induction [1]: 40 | EC50 [2]: 3.4 µM

SMILES: CC1=C(C(=O)OCC(F)(F)C(F)(F)F)C(c2ccccc2)NC(=O)N1 (centres undefined)
Fold-induction [11]: 5.1 | Fold-induction [4]: inactive | Fold-induction [5]: 9 | Fold-induction [6]: inactive | Fold-induction [7]: inactive | Fold-induction [8]: inactive | Fold-induction [9]: inactive

bioavailability [12]: 65% | bioavailability [13]: 65% | bioavailability [14]: 13% | bioavailability [15]: 13%
SMILES: CCCC1=C(C(=O)OCc2ccc(C(=O)NCCN3CCCCC3)cc2)C(c2cccc(C)c2)NC(=O)N1 (centres undefined)
Fold-induction [1]: 51 | EC50 [2]: 1.3 µM

SMILES: CCCC1=C(C(=O)OCc2ccc(C(=O)NCCCN3CCN(C)CC3)cc2)C(c2cccc(C)c2)NC(=O)N1 (centres undefined)
Fold-induction [1]: 55 | EC50 [2]: 4.3 µM

SMILES: CCCC1=C(C(=O)OCc2ccc(C(=O)OC)cc2)C(c2cccc(C)c2)NC(=O)N1 (centres undefined)
Fold-induction [1]: 42 | EC50 [2]: 1 µM

bioavailability [17]: 2%
SMILES: CCCC1=C(C(=O)OCC)C(c2cccc(C)c2)NC(=O)N1 (centres undefined)
bioavailability [16]: 2% | Fold-induction [1]: 35 | EC50 [2]: 7.5 µM

SMILES: C=CCOC(=O)C1=C(C)NC(=O)NC1c1ccc2c(c1)OCO2 (centres undefined)
Fold-induction [18]: 4.7 | Fold-induction [4]: inactive | Fold-induction [5]: 8 | Fold-induction [6]: inactive | Fold-induction [7]: inactive | Fold-induction [8]: inactive | Fold-induction [9]: inactive

SMILES: CCCC1=C(C(=O)OCc2ccc(C(=O)NCCN3CCOCC3)cc2)C(c2cccc(C)c2)NC(=O)N1 (centres undefined)
Fold-induction [1]: 50 | EC50 [2]: 4.3 µM

SMILES: CCCCCC1=C(C(=O)OCC)C(c2cccc(C)c2)NC(=O)N1 (centres undefined)
Fold-induction [1]: 31

SMILES: COc1ccc(COC(=O)C2=C(C(C)C)NC(=O)NC2c2cccc(C)c2)cc1 (centres undefined)
Fold-induction [1]: 33 | EC50 [2]: 5.8 µM
